Laboratory results from patent EP1148048A2, “Polyaromatic antiviral compositions” (PHARMACIA & UPJOHN COMPANY, priority 1997, dated 1998).
Where two headings read alike, the source gives them in different places.

Legend:
Type in all cases: cell-based
HSV-1 = assay: Virus yield reduction assay, inhibition of HSV-1 viral replication in Vero cells; details: read-out: % Inhibition Against HSV-1 Viral Replication
Method: (§1) Compounds of the formulas II and III of the present invention are evaluated in an assay to measure the inhibition of HSV-1 viral replication in the presence of drug over a 14-16 hour period. The assay is discussed in detail by Pritchard, M.N. et al. "A Microliter Virus Yield Reduction Assay for the Evaluation of Antiviral Compounds Against Human Cytomegalovirus and Herpes Simplex Virus", J. Virol. Meth., Vol. 28, pp 101-106 (1990). Briefly, 80% confluent monolayers of Vero cells in 24 well plates are infected with low multiplicities of HSV-1 (MOI = .001). After an absorption period of 1 hour at 37 °C, the monolayers are rinsed with culture media and aliquots of compounds diluted into tissue culture media are added for 14-16 hours at 37 °C in a CO2 atmosphere. The growth media is removed and 1 ml of fresh media is added to each well and plates are placed at -70 °C. After a 1-5 day storage period the plates are rapidly thawed, samples are collected on ice and titrated on fresh Vero cell monolayers. Viral plaques are stained with 0.1% crystal violet in 20% alcohol for 10 minutes and are counted. Data are calculated to reflect the percentage of inhibition at indicated concentration relative to infected, non-drug treated controls.

HSV-2 = assay: Virus yield reduction assay, inhibition of HSV-2 viral replication (substantially the same assay as for HSV-1)
Method: as §1
Compounds of the formulas II and III of the present invention are also evaluated in substantially the same assay as described above to measure the inhibition of HSV-2 viral replication.

VZV = assay: Plaque reduction assay, VZV replication in HFF cells over five days
Method: Antiviral activity against VZV are evaluated in an assay to measure the reduction of viral replication in the number viral plaques formed over five days of incubation in the presence of compounds of the present invention. Aliquots of VZV are added for 90 minutes to 24 well plates having HFF cells at 80% confluence to yield approximately 25 plaques for media treated wells. The plates are flicked and dilutions of compounds in tissue culture media at 2 time strength are added (0.5 ml per well). Immediately following the addition of drug 0.5 ml of 1.0% agarose is added to the wells and the plates are gently tapped to aid mixing. This final concentration of agarose (0.5%) is insufficient to solidify at 37 °C and serves as a semi solid overlay medium. Plates are undisturbed for five days. On day 5 the plates are examined microscopically for toxicity and plaques are counted using low power microscopy.

[1] = Human alphaherpesvirus 1, Vero, 14 h
[2] = Human alphaherpesvirus 1, 14 h, 5 µm, Vero cells, MOI = .001, 14-16 hours
[3] = Human alphaherpesvirus 1, 14 h, 30 µm, Vero cells, MOI = .001, 14-16 hours

Row | SMILES | inhibition at 5 µM (HSV-1; [1]) [%] | inhibition at 30 µM (HSV-1; [1]) [%] | inhibition at 5 µM (HSV-1; [2]) [%] | inhibition at 30 µM (HSV-1; [3]) [%] | other results
1 | Cc1ccc(NC(=S)Nc2ccc(Cl)cc2)cc1NC(=S)Nc1ccc(Cl)cc1 [Example 1, N,N"-(4-methyl-1,3-phenylene)bis[N'-(4-chlorophenyl)thiourea]] | < 0 | 0 to 50 |  |  | 
2 | COc1ccc(NC(=O)Nc2ccc([N+](=O)[O-])cc2)cc1NC(=O)Nc1ccc([N+](=O)[O-])cc1 [Example 2, N,N"-(4-methoxy-1,3-phenylene)bis[N'-(4-nitrophenyl)urea]] |  |  | < 0 | 50 to 90 | 
3 | COc1ccc(NC(=O)Nc2ccc(Cl)cc2)cc1NC(=O)Nc1ccc(Cl)cc1 [Example 3, N,N"-(4-methoxy-1,3-phenylene)bis[N'-(4-chlorophenyl)urea]] | 0 to 50 | 0 to 50 |  |  | 
4 | COc1ccc(NC(=O)Nc2ccc(C)cc2)cc1NC(=O)Nc1ccc(C)cc1 [Example 4, N,N"-(4-methoxy-1,3-phenylene)bis[N'-(p-tolyl)urea]] | 0 to 50 | 0 to 50 |  |  | 
5 | CSC(=Nc1ccccc1)Nc1ccc(Oc2ccc(NC(=Nc3ccccc3)SC)cc2)cc1 [Example 5, dimethyl N,N"-(oxydi-4,1-phenylene)bis [N'-(phenyl) carbamimidothioate]] |  |  | < 0 | 0 to 50 | 
6 | COc1ccc(NC(=S)Nc2ccc(Cl)cc2)cc1NC(=S)Nc1ccc(Cl)cc1 [Example 6, N,N"-(4-methoxy-1,3-phenylene)bis[N'-(4-chlorophenyl)thiourea]] | < 0 | 0 to 50 |  |  | 
7 | COc1ccc(NC(=S)Nc2ccc([N+](=O)[O-])cc2)cc1NC(=S)Nc1ccc([N+](=O)[O-])cc1 [Example 7, N,N"-(4-methoxy-1,3-phenylene)bis[N'-(4-nitrophenyl)thiourea]] |  |  | < 0 | 0 to 50 | 
8 | CSC(=Nc1ccc([N+](=O)[O-])cc1)Nc1ccc(Oc2ccc(NC(=Nc3ccc([N+](=O)[O-])cc3)SC)cc2)cc1 [Example 8, dimethyl N,N"-(oxydi-4,1-phenylene)bis[N'-(4-nitrophenyl)carbamimidothioate]] |  |  | < 0 | 0 to 50 | 
9 | COc1cccc(NS(=O)(=O)c2ccc(Oc3ccc(S(=O)(=O)Nc4cccc(OC)c4)cc3)cc2)c1 [Example 9, bis[N-(3-methoxyphenyl)aminosulfonyl](oxydi-4,1-phenylene)] | 0 to 50 | > 90 |  |  | 
10 | Cc1ccc(NS(=O)(=O)c2cccc(S(=O)(=O)Nc3ccc(C)cc3)c2)cc1 [Example 10, N,N"-(1,3-phenylene)bis[N-(p-tolyl)aminosulfonyl]] | 0 to 50 | 50 to 90 |  |  | 
11 | Cc1cccc(NS(=O)(=O)c2ccc(Oc3ccc(S(=O)(=O)Nc4cccc(C)c4)cc3)cc2)c1 [Example 11, bis[N-(3-methylphenyl)aminosulfonyl](oxydi-4,1-phenylene)] | < 0 | 50 to 90 |  |  | 
12 | CSC(=NCCc1ccccc1)Nc1ccc(Oc2ccc(NC(=NCCc3ccccc3)SC)cc2)cc1 [Example 12, dimethyl N,N"-(oxydi-4,1-phenylene)bis[N'-(2-phenylethyl)carbamimidothioate]] |  |  | 50 to 90 | > 90 | % Inhibition Against HSV-2 Viral Replication (HSV-2; 1µm): + (<50% inhibition at the indicated concentration); % Inhibition Against HSV-2 Viral Replication (HSV-2; 10 µm): ++ (> 50% inhibition at the indicated concentration); % Inhibition Against VZV Viral Replication (VZV; 2µm): +++ (>90% inhibition at the indicated concentration)
13 | N=C(Nc1ccc(Cc2ccc(NC(=N)c3ccccc3)cc2)cc1)c1ccccc1 [Example 13, N,N"-(methylenedi-4,1-phenylene)bis [benzenecarboximidamide]] | 0 to 50 | > 90 |  |  | % Inhibition Against HSV-2 Viral Replication (HSV-2; 1µm): + (<50% inhibition at the indicated concentration); % Inhibition Against HSV-2 Viral Replication (HSV-2; 10 µm): +++ (>90% inhibition at the indicated concentration); % Inhibition Against VZV Viral Replication (VZV; 2µm): + (<50% inhibition at the indicated concentration)
14 | O=[N+]([O-])c1ccc(NC(=S)Nc2ccc(Oc3ccc(NC(=S)Nc4ccc([N+](=O)[O-])cc4)cc3)cc2)cc1 [Example 14, N,N"-(oxydi-4,1-phenylene)bis[N'-(4-nitrophenyl)thiourea]] |  |  | < 0 | 0 to 50 | 
15 | S=C(NCCc1ccccc1)Nc1ccc(Oc2ccc(NC(=S)NCCc3ccccc3)cc2)cc1 [Example 15, N,N''-(oxydi-4,1-phenylene)bis[N'-(2-phenylethyl)thiourea]] | 0 to 50 | 0 to 50 |  |  | % Inhibition Against HSV-2 Viral Replication (HSV-2; 1µm): + (<50% inhibition at the indicated concentration); % Inhibition Against HSV-2 Viral Replication (HSV-2; 10 µm): + (<50% inhibition at the indicated concentration); % Inhibition Against VZV Viral Replication (VZV; 2µm): +++ (>90% inhibition at the indicated concentration)
16 | O=C(Nc1ccc(Oc2ccc(NC(=O)c3ccco3)cc2)cc1)c1ccco1 [Example 16, N,N"-(oxydi-4,1-phenylene)bis(2-furancarboxamide)] | 0 to 50 | 50 to 90 |  |  | 
17 | O=S(=O)(c1ccc(OCc2ccc(Cl)cc2)cc1)c1ccc(OCc2ccc(Cl)cc2)cc1 [Example 17, bis(4-chlorobenzyloxy)(sulfonyldi-4,1-phenylene)] | 0 to 50 | 50 to 90 |  |  | % Inhibition Against HSV-2 Viral Replication (HSV-2; 1µm): ++ (> 50% inhibition at the indicated concentration); % Inhibition Against HSV-2 Viral Replication (HSV-2; 10 µm): ++ (> 50% inhibition at the indicated concentration); % Inhibition Against VZV Viral Replication (VZV; 2µm): ++ (> 50% inhibition at the indicated concentration)
18 | O=S(=O)(c1ccc(OCc2ccc(Br)cc2)cc1)c1ccc(OCc2ccc(Br)cc2)cc1 [Example 18, bis(4-bromobenzyloxy)(sulfonyldi-4,1-phenylene)] | 0 to 50 | 50 to 90 |  |  | % Inhibition Against VZV Viral Replication (VZV; 10µm): +++ (>90% inhibition at the indicated concentration)
19 | O=S(=O)(c1ccc(OCc2ccncc2)cc1)c1ccc(OCc2ccncc2)cc1 [Example 19, bis[(4-pyridyl)methoxy](sulfonyldi-4,1-phenylene)] | 0 to 50 | 0 to 50 |  |  | 
20 | O=S(=O)(c1ccc(OCc2ccc(F)cc2)cc1)c1ccc(OCc2ccc(F)cc2)cc1 [Example 20, bis(4-fluorobenzyloxy)(sulfonyldi-4,1-phenylene)] | 0 to 50 | 50 to 90 |  |  | 
21 | O=[N+]([O-])c1ccc(COc2ccc(S(=O)(=O)c3ccc(O)cc3)cc2)cc1 [Example 21, hydroxy(4-nitrobenzyloxy)(sulfonyldi-4,1-phenylene)] | < 0 | 50 to 90 |  |  | 
22 | O=S(=O)(c1ccc(O)cc1)c1ccc(OCc2ccc(Cl)cc2)cc1 [Example 22, (4-chlorobenzyloxy)hydroxy(sulfonyldi-4,1-phenylene)] | < 0 | 50 to 90 |  |  | 
23 | O=[N+]([O-])c1ccc(NC(=S)Nc2ccc(Cc3ccc(NC(=S)Nc4ccc([N+](=O)[O-])cc4)cc3)cc2)cc1 [Example 23, N, N"-(methylenedi-4,1-phenylene)bis[N'-(4-nitrophenyl)thiourea]] |  |  | < 0 | > 90 | % Inhibition Against VZV Viral Replication (VZV; 10µm): + (<50% inhibition at the indicated concentration)
